The values below come from the METLIN SMRT retention time set (Domingo-Almenara et al. 2019).

The data set in a line: gradient 5% acetonitrile 3 min, to 50% in 2 min, to 85% in 15 min, held 3 min, 100 µL/min. Particulars: column: Zorbax Extend-C18 2.1 x 50 mm; eluents: water / acetonitrile, 0.1% formic acid. The essentials: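 In both positive and negative ionization mode, a quadrupole time-of-flight mass spectrometer coupled to HPLC analyzed pure standards run in mixtures of ~100 molecules. The Zorbax Extend-C18 column (2.1 × 50 mm, 1.8 μm) was operated at 100 μL/min with water and acetonitrile, each containing 0.1% formic acid. The dead volume was 40 μL and the dwell volume 900 μL. Retention time came from adduct peaks that were computationally picked and individually inspected by hand.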
`CCn1cnc(S(=O)(=O)N2CCC(C(=O)Nc3cccc(-c4ccno4)c3)CC2)c1` yielded an RP-LC retention time of 724 s. Molecule `Clc1ccc2nc(-c3cccc(Br)c3)c(Nc3ccc4c(c3)OCCO4)n2c1` yielded an RP-LC retention time of 972 s. The result for `O=C(NCCc1ccco1)C1CCN(Cc2cc3ccccc3n2Cc2cccc(Cl)c2)CC1` reads 813 s; that for `Cc1n[nH]c(C)c1CNC(=O)C1Cn2cccc2C(=O)N1C` (centres undefined), 549 s; that for `CC(C)NC(=O)c1ccc(OCC2CCN(C(=O)c3ccccc3)CC2)cc1`, 828 s.

Take `Cc1cc(=O)n(CC(=O)Nc2ccccc2)c(-c2ccc(Cl)cc2)n1`: the RP-LC retention time worked out at 1100 s.

As for `O=C(NC1CCN(c2cc(-c3ccc(F)cc3)[nH]n2)C1)c1cccc(Br)c1` (centres undefined), the RP-LC retention time was determined as 806 s. As for `COc1ccc(C2c3[nH]c4ccccc4c3CCN2C(=O)c2ccncc2)cc1` (centres undefined), the figure is 877 s. As for `O=C(Cc1cn2cc(Cl)ccc2n1)Nc1ccccc1`, the figure is 614 s; as for `CCCS(=O)(=O)N1CCC(c2nc(CCOc3ccc(F)cc3)no2)C1` (centres undefined), 894 s. Turning to `Cc1ccc(-c2ncccc2CNS(=O)(=O)c2ccc(C)cc2)cc1`, the RP-LC retention time was 684 s. As for `COc1ccccc1-c1nc(C2CC(=O)N(c3ccc(F)c(Cl)c3)C2)no1` (centres undefined), the figure is 1020 s.

In the case of `CSc1cccc(NC(=O)c2cn(C)nc2S(=O)(=O)N2CCC(C)CC2)c1`, the RP-LC retention time came out at 1120 s. Molecule `CC(C)c1noc(-c2ccnc(-n3cnc(C(=O)N4CCOCC4)c3)c2)n1` showed an RP-LC retention time of 748 s.

Molecule `CSc1ccccc1CN1CCC(CNC(=O)C(=O)NCCC2=CCCCC2)CC1` returned an RP-LC retention time of 622 s.

`O=C(c1ccccc1OCC1CCCN(C2CCC2)C1)N1CCCCC1` (centres undefined): the RP-LC retention time came out at 632 s.

`Cc1cc(C(=O)N2CCc3nn(C)c(=O)n3CC2)n[nH]1` returned an RP-LC retention time of 560 s. Regarding `COCCCNC(=O)N1CCN(c2nnc(C)c3c(C)n(-c4ccc(C)cc4)nc23)CC1`, the RP-LC retention time worked out at 643 s. The molecule `COc1ccccc1N1CCN(C(=O)Cn2c(N3CCc4ccccc4C3)nc(C)cc2=O)CC1` displayed an RP-LC retention time of 759 s. `COc1ccc(NC(=O)Cn2nc3nc(N4CCOCC4)ccn3c2=O)cc1F` came in with an RP-LC retention time of 602 s. `CCc1nn2c(CNC(=O)c3ccc(Cl)cc3)c(-c3ccccc3)nc2s1` showed an RP-LC retention time of 974 s. The result for `CCOC(=O)NCc1nc2ccccc2n1Cc1c(F)cccc1Cl` reads 613 s; that for `Cc1ccc(N(C)S(=O)(=O)c2ccccc2-c2nc(-c3ccccc3)no2)cc1`, 1200 s; that for `CN1c2cc(C(=O)N3CCN(c4ccccn4)CC3)ccc2C(=O)N2CCCCC21` (centres undefined), 588 s. As for `CCc1ccc(C2=C(C)C(N3CCC(NC(=O)CCC(C)C)CC3)=NS2(=O)=O)cc1`, the figure is 935 s; as for `COc1ccc(N2COc3ccc4c(c3C2)O/C(=C\c2ccco2)C4=O)cc1`, 700 s; as for `COc1ccc(C2CC(=O)N(c3ccc(C(C)C)cc3)C(=O)C2)cc1OC`, 987 s. The result for `CC(C)(C)c1ccc(O)c(NC(=O)c2cn(-c3ccc(S(=O)(=O)N4CCOCC4)cc3)cn2)c1` reads 966 s; that for `Cc1cccc(CNC(=O)CN2CCN(Cc3ccc(F)cc3)C2=O)c1`, 831 s.

The molecule `CCC(C)n1c(=O)c2ccccc2n(Cc2nc(-c3ccc(C)cc3)no2)c1=O` (centres undefined) gave an RP-LC retention time of 1240 s. For the molecule `CSc1ccc(CNC(=O)C2CCCN(c3nc4c(s3)c(C)nn4-c3ccccc3)C2)cc1` (centres undefined), the RP-LC retention time was found to be 1150 s. As for `Nc1ccc(C(=O)Nc2cccc(N)c2)cc1`, the figure is 752 s. The molecule `C=CCN1C(=O)COc2ccc(-c3nc(NC(=O)C(C)C)sc3C)cc21` came in with an RP-LC retention time of 922 s. The molecule `Cc1cc(C)n(-c2ccc(C(=O)N3CCN(c4ccccc4)CC3)cn2)n1` displayed an RP-LC retention time of 949 s. The molecule `CC1CCCN(c2nc(=O)n(CC(=O)Nc3ccc4c(c3)OCCO4)c3ccccc23)C1` (centres undefined) gave an RP-LC retention time of 780 s. As for `O=C(Cn1c(=O)oc2cc(Cl)ccc21)N1CCN(c2ccccn2)CC1`, the figure is 630 s; as for `CCc1nc2cc(-c3noc(CCc4c[nH]c5ccccc45)n3)ccc2o1`, 1050 s; as for `Cc1cnc(CC2CCN(C(=O)N(C)C)C2)n1Cc1ccccc1` (centres undefined), 609 s. As for `CN1C(=O)c2cc(C(=O)N3CCCCCC3)nn2CC1(C)C(=O)NC1CCCCCC1` (centres undefined), the figure is 802 s; as for `Cc1ccc2c(Nc3ccc(C)c(Cl)c3)c(C(=O)N3CCOCC3)cnc2n1`, 610 s. `COc1ccc(OC)c(NC(=O)CN2C(=O)C(C)(C)c3cc(C)ccc32)c1`: the RP-LC retention time amounted to 915 s.

`Cc1cc2[nH]c(C(=O)Nc3ccc(F)cc3Br)c(CN(C)C)c2s1` came in with an RP-LC retention time of 678 s. The molecule `O=C(c1cn2c(n1)CCCC2)N(Cc1ccccc1)Cc1ccco1` gave an RP-LC retention time of 668 s.

`Cc1sc2ncnc(N3CCCCC3)c2c1C(=O)Nc1cc(F)c(F)c(F)c1`: the RP-LC retention time worked out at 1230 s. `Cc1sc(-c2cc(C(F)(F)F)on2)cc1S(=O)(=O)Nc1ccccc1Cl` returned an RP-LC retention time of 1180 s. In the case of `O=S(=O)(c1ccc(Br)cc1)N1CCc2nc(-c3ccccc3)ncc2C1`, the RP-LC retention time was 1120 s. Molecule `CCN(Cc1ccccc1)C(=O)Cn1cnc(C)cc1=O` yielded an RP-LC retention time of 624 s. `Fc1ccc(-c2noc(CCc3nnc4ccc(N5CCN(Cc6ccccc6)CC5)nn34)n2)cc1` returned an RP-LC retention time of 656 s.

Molecule `COCC1(O)CCOC2(CCN(Cc3ccc(F)cc3)CC2)C1` (centres undefined) returned an RP-LC retention time of 654 s.

Regarding `O=C(C1=CN(c2cc(F)cc(F)c2)c2ccccc2S1(=O)=O)N1CCCCC1`, the RP-LC retention time stood at 873 s. The result for `Cc1nnc(-c2ccc3ccn(CC(=O)N4CCN(c5ccccn5)CC4)c3c2)o1` reads 598 s; that for `COc1cccc(-n2c(=O)c(C(=O)Nc3cc(F)ccc3F)c(O)c3cccnc32)c1`, 1270 s; that for `CC(C)n1c(N2CCN(C(=O)c3ccccn3)CC2)cc(=O)n(C(C)C)c1=O`, 709 s. For the molecule `Cc1ccc(NC(=O)C(C)C2CCN(C(=O)Nc3ccccc3)CC2)cc1` (centres undefined), the RP-LC retention time is 860 s. As for `Cc1cccc(Nc2c(-c3cccc(O)c3)nc3cnccn23)c1C`, the figure is 816 s; as for `CC(C)NC(=O)Cn1c(-c2ccccc2F)nc2ccccc21`, 589 s; as for `Cc1cc(C)nc(Nc2nc(CC(=O)Nc3nc(C)c(C(=O)N(C)C)s3)cs2)n1`, 646 s. As for `Cc1cc(C(=O)Nc2nc(-c3ccccc3)c(-c3ccccc3)s2)no1`, the figure is 1180 s; as for `CCc1noc(C2CCCCN2CC(=O)NCCc2cccs2)n1` (centres undefined), 794 s; as for `CCCCOc1ccc(NC(=O)Nc2ccc(N3CCCS3(=O)=O)cc2)cc1`, 851 s.

`Cc1cccc(-c2noc(-c3cccnc3N3CCN(c4ccc5c(c4)OCO5)CC3)n2)c1` registered an RP-LC retention time of 766 s.

`COc1ccc(C)cc1NC(=O)Cn1nc2c(Oc3ccc(Cl)cc3)nccn2c1=O` returned an RP-LC retention time of 946 s. The result for `O=C(CN1CCN(c2ccc(F)cc2)C1=O)NCCCN1CCCC1=O` reads 611 s; that for `O=C(NCc1[nH]nc2ccccc12)c1ccc(Br)o1`, 725 s; that for `CS(=O)(=O)c1ccccc1NC(=O)C1CCCCN1S(=O)(=O)c1cccs1` (centres undefined), 837 s. As to `CC(C)Cc1ccc(S(=O)(=O)N2CC(c3nc(-c4ccncc4)nn3C)C2)cc1`, the RP-LC retention time amounted to 787 s. `O=C(C1=NN(Cc2ccc(F)cc2)c2cc(Cl)ccc2S1(=O)=O)N1CCOCC1` displayed an RP-LC retention time of 899 s. As for `CCC(=O)N1c2ccc(S(=O)(=O)N3CCCCC3)cc2CC1C(=O)NCc1ccc(C)cc1` (centres undefined), the RP-LC retention time was 955 s. In turn, `O=C(c1ccncc1)N1CCN(c2cc(-c3cccs3)[nH]n2)CC1` gave an RP-LC retention time of 619 s. The result for `CCN1CCN(C(=O)CC2CCN(S(=O)(=O)c3ccc(Cl)s3)CC2)CC1` reads 647 s; that for `O=C(Cc1csc(NC(=O)C2CCCC2)n1)Nc1nc(-c2cccnc2)cs1`, 600 s.

For the molecule `Cc1ccc(CNC(=O)CN2C(=O)C(Oc3ccc(F)cc3)C23CCCCC3)o1` (centres undefined), the RP-LC retention time is 1020 s. The result for `Cc1ccc2c(=O)c3c([nH]c2c1C)CCN(CC(=O)NCc1ccccc1F)C3` reads 621 s. The molecule `CCN1CCN(CCNC(=O)c2cc3n(n2)CCCN(Cc2ccc(C)cc2)C3=O)CC1` yielded an RP-LC retention time of 614 s.

With `COCc1nc2cccnc2n1C1CCN(C(=O)Nc2cc(OC)cc(OC)c2)CC1`, the RP-LC retention time was 696 s.

The molecule `OC1(c2ccccn2)CCOC2(CCN(Cc3c(F)cccc3Cl)CC2)C1` (centres undefined) displayed an RP-LC retention time of 560 s. The result for `CCCn1cc(C(=O)NCC(=O)OCC)c(S(=O)(=O)N2CCN(c3ccccc3Cl)CC2)n1` reads 1090 s. Turning to `COc1cc(C)c(C)cc1S(=O)(=O)Nc1cccc(-c2ccc(N3CCCC3)nn2)c1`, the RP-LC retention time came out at 607 s. The molecule `Cc1cc(C)c(NC(=O)C2CCN(S(C)(=O)=O)c3ccccc3O2)c(C)c1` (centres undefined) came in with an RP-LC retention time of 900 s.
